Reference: patent US20150352108A1, “AMINO-PYRIMIDINE COMPOUNDS AS INHIBITORS OF TBK1 AND/OR IKK EPSILON” (Alzheimer's Institute of America, priority 2009, published 2015)

biological target: T1, IKKε (Homo sapiens, UniProt Q14164); test: In-vitro IKKε kinase assay ([γ33]ATP filter-plate); assay type: biochemical; conditions: text bins; read-out: IC50 for inhibition of the kinase activity of IKKε
T1 construct: His-tag; made in house; host or cells: Sf9 insect cells
T1 sequence (Q14164 1-716): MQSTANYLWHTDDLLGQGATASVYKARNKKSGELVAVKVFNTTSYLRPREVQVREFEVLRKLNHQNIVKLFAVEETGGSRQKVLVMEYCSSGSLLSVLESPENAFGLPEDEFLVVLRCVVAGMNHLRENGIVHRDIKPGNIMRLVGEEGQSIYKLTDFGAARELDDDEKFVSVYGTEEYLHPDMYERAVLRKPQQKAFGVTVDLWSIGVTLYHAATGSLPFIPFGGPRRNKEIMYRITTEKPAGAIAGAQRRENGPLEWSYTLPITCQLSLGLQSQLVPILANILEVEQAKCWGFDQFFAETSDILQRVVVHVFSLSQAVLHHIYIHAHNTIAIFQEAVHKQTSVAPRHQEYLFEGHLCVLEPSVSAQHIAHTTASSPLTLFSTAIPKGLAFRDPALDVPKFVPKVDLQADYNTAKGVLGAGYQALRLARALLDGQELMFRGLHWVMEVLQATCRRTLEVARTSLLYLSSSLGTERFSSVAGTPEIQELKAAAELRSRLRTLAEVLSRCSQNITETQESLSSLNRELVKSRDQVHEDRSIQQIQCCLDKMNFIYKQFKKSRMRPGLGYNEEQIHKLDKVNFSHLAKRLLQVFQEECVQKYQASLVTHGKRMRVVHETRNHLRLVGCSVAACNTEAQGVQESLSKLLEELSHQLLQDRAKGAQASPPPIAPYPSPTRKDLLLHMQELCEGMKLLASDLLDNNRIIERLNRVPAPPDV
Procedure, shortened: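 His-tagged IKKε and TBK1 from Sf9 cells were assayed with myelin basic protein or casein and [γ33]ATP at 2×Km ATP (32 μM for IKKε, 60 μM for TBK1). Enzyme was 0.1 or 0.015 μg/ml for IKKε and 0.1 or 0.02 μg/ml for TBK1 (normal/sensitized). Reactions ran 30-45 min, were filter-captured, scintillation-counted, and normalized to DMSO after background subtraction.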

IC50 [nM]	Structure (SMILES)
50 to 500	CN1CCN(CC(=O)N2CCC(Oc3ccc(-c4ccnc(Nc5ccc(N6CCOCC6)cc5)n4)cc3C#N)CC2)CC1 [Example 240, 2-({1-[(4-methylpiperazin-1-yl)acetyl]piperidin-4-yl}oxy)-5-(2-{[4-(morpholin-4-yl)phenyl]amino}pyrimidin-4-yl)benzonitrile]
50 to 500	CN1CCN(c2ccc(Nc3nccc(-c4cc(C#N)cc(OCc5ccccc5)c4)n3)cc2)CC1 [Example 244, 3-(Benzyloxy)-5-(2-{[4-(4-methylpiperazin-1-yl)phenyl]amino}pyrimidin-4-yl)benzonitrile]
50 to 500	COc1ccc(-c2ccnc(Nc3cc(CN4CCC[C@H]4C(=O)N(C)C)c(OC)c(OC)c3)n2)cc1C#N [Example 245, 1-(5-{[4-(3-Cyano-4-methoxyphenyl)pyrimidin-2-yl]amino}-2,3-dimethoxybenzyl)-N,N-dimethylprolinamide]
5 to 50	N#Cc1cc(-c2ccnc(Nc3ccc(N4CCOCC4)cc3)n2)ccc1OC1CCN(C(=O)C(F)(F)F)CC1 [Example 247, 5-(2-{[4-(Morpholin-4-yl)phenyl]amino}pyrimidin-4-yl)-2-{[1-(trifluoroacetyl)piperidin-4-yl]oxy}benzonitrile]
50 to 500	C[C@H](O)C(=O)N1CC(Oc2ccc(-c3ccnc(Nc4ccc(N5CCOCC5)cc4)n3)cc2C#N)C1 [Example 249, 2-({1-[(2S)-2-hydroxypropanoyl]azetidin-3-yl}oxy)-5-(2-{[4-(morpholin-4-yl)phenyl]amino}pyrimidin-4-yl)benzonitrile]
50 to 500	C[C@H](O)C(=O)NCCOc1ccc(-c2ccnc(Nc3ccc(N4CCOCC4)cc3)n2)cc1C#N [Example 250, (2S)-N-{2-[2-cyano-4-(2-{[4-(morpholin-4-yl)phenyl]amino}pyrimidin-4-yl)phenoxy]ethyl}-2-hydroxypropanamide]
50 to 500	CC(C)(N)C(=O)N1CCC(COc2ccc(-c3ccnc(Nc4ccc(N5CCOCC5)cc4)n3)cc2C#N)CC1 [Example 255, 2-{[1-(2-methylalanyl)piperidin-4-yl]methoxy}-5-(2-{[4-(morpholin-4-yl)phenyl]amino}pyrimidin-4-yl)benzonitrile]
50 to 500	CC(Oc1ccc(-c2ccnc(Nc3ccc(N4CCOCC4)cc3)n2)cc1C#N)C(=O)O (centres unmarked) [Example 265, 2-[2-Cyano-4-(2-{[4-(morpholin-4-yl)phenyl]amino}pyrimidin-4-yl)phenoxy]propanoic acid]
5 to 50	CC(C)C(=O)Nc1ccc(-c2ccnc(Nc3ccc(N4CCOCC4)cc3)n2)cc1C#N [Example 267, N-[2-Cyano-4-(2-{[4-(morpholin-4-yl)phenyl]amino}pyrimidin-4-yl)phenyl]-2-methylpropanamide]
50 to 500	CC(=O)Nc1cccc(Nc2nccc(-c3cccc(C#N)c3)n2)c1 [Example 277, N-(3-{[4-(3-Cyanophenyl)pyrimidin-2-yl]amino}phenyl) acetamide]
5 to 50	COc1cc(NC(C)=O)cc(Nc2nccc(-c3ccc(OC)c(C#N)c3)n2)c1 [Example 279, N-(3-{[4-(3-Cyano-4-methoxyphenyl)pyrimidin-2-yl]amino}-5-methoxyphenyl) acetamide]
50 to 500	CC(C)(C)c1ccc(Nc2nccc(-c3cccc(C#N)c3)n2)cc1 [Example 282, 3-{2-[(4-tert-Butylphenyl)amino]pyrimidin-4-yl}benzonitrile]
50 to 500	COc1ccc(-c2ccnc(Nc3ccc(OC)c(OC4CCN(C)CC4)c3)n2)cc1C#N [Example 289, 2-Methoxy-5-[2-({4-methoxy-3-[(1-methylpiperidin-4-yl)oxy]phenyl}amino)pyrimidin-4-yl]benzonitrile]
50 to 500	CN1CCN(CCOc2ccc(Nc3nccc(-c4cccc(C#N)c4)n3)cc2)CC1 [Example 292, 3-[2-({4-[2-(4-Methylpiperazin-1-yl)ethoxy]phenyl}amino)pyrimidin-4-yl]benzonitrile]
5 to 50	COc1ccc(-c2ccnc(Nc3ccccc3)n2)cc1C#N [compound 299, 2-Methoxy-5-[2-(phenylamino)pyrimidin-4-yl]benzonitrile]
50 to 500	CC(C)(C)c1cccc(Nc2nccc(-c3cccc(C#N)c3)n2)c1 [compound 300]
5 to 50	COc1ccc(-c2ccnc(Nc3cccc(NC(=O)NCCO)c3)n2)cc1C#N [compound 301, 1-(3-{[4-(3-Cyano-4-methoxyphenyl)pyrimidin-2-yl]amino}phenyl)-3-(2-hydroxyethyl)urea]
50 to 500	COc1ccc(Nc2ncc(C)c(-c3cccc(C#N)c3)n2)cc1OC [compound 304, 3-{2-[(3,4-Dimethoxyphenyl)amino]-5-methylpyrimidin-4-yl}benzonitrile]
50 to 500	COc1ccc(-c2ccnc(Nc3cccc(S(=O)(=O)NCCCO)c3)n2)cc1C#N [compound 306, 3-{[4-(3-Cyano-4-methoxyphenyl)pyrimidin-2-yl]amino}-N-(3-hydroxypropyl) benzenesulfonamide]
50 to 500	COc1ccc(-c2ccnc(Nc3ccc(S(=O)(=O)N4CCN(C)CC4)cc3)n2)cc1C#N [compound 308, 2-Methoxy-5-[2-({4-[(4-methylpiperazin-1-yl)sulfonyl]phenyl}amino)pyrimidin-4-yl]benzonitrile]
50 to 500	COc1ccc(-c2ccnc(Nc3cccc(S(=O)(=O)NCCO)c3)n2)cc1C#N [compound 309, 3-{[4-(3-Cyano-4-methoxyphenyl)pyrimidin-2-yl]amino}-N-(2-hydroxyethyl) benzenesulfonamide]
5 to 50	COc1ccc(-c2ccnc(Nc3cccc(NC(=O)NCCCO)c3)n2)cc1C#N [compound 310, 1-(3-{[4-(3-Cyano-4-methoxyphenyl)pyrimidin-2-yl]amino}phenyl)-3-(3-hydroxypropyl)urea]
50 to 500	COc1ccc(Nc2nccc(-c3cccc(C#N)c3)n2)cc1 [compound 319, 3-{2-[(4-Methoxyphenyl)amino]pyrimidin-4-yl}benzonitrile]
5 to 50	COc1ccc(-c2ccnc(Nc3cccc(N)c3)n2)cc1C#N [compound 321, 5-{2-[(3-Aminophenyl)amino]pyrimidin-4-yl}-2-methoxybenzonitrile]
5 to 50	COc1ccc(-c2ccnc(Nc3ccc(S(N)(=O)=O)cc3)n2)cc1C#N [compound 323, 4-{[4-(3-Cyano-4-methoxyphenyl)pyrimidin-2-yl]amino} benzenesulfonamide]
50 to 500	COc1cc(Nc2nccc(-c3ccc(OC)c(C#N)c3)n2)ccc1C [compound 325, 2-Methoxy-5-{2-[(3-methoxy-4-methylphenyl)amino]pyrimidin-4-yl}benzonitrile]
5 to 50	COc1cc(NC(=O)NC2CCCC2)cc(Nc2nccc(-c3ccc(OC4CCN(C(C)=O)CC4)c(C#N)c3)n2)c1 [compound 333, 1-{3-[(4-{4-[(1-Acetylpiperidin-4-yl)oxy]-3-cyanophenyl}pyrimidin-2-yl)amino]-5-methoxyphenyl}-3-cyclopentylurea]
5 to 50	COc1cc(NC(=O)CN(C)C)cc(Nc2nccc(-c3ccc(OC)c(C#N)c3)n2)c1 [compound 336, N-(3-{[4-(3-Cyano-4-methoxyphenyl)pyrimidin-2-yl]amino}-5-methoxyphenyl)-N~2~,N~2~- dimethylglycinamide]
50 to 500	N#Cc1cccc(-c2ccnc(Nc3cccc(Cl)c3)n2)c1 [compound 338, 3-{2-[(3-Chlorophenyl)amino]pyrimidin-4-yl}benzonitrile]
